Measurements published in patent publication US5089623A, “Certain imidate insecticides” (Imperial Chemical Industries Plc, priority 1990, dated 1992).

Columns and labels:
Format in all cases: in vivo
[1] = system: Beet Armyworm (Spodoptera exigua); assay: Beet armyworm test (BAW)
Procedure: (§1) The compounds in Tables 1 and 2 above were tested for insecticidal activity using the following testing procedures. LC50 values, based on the results of these tests and calculated according to dosage-mortality curves, are expressed in Table 3.
Beet Armyworm (Spodoptera exigua)
Test compounds were diluted in a 50-50 acetone-water solution. Young leaves of sugar beets (Beta vulgaris) were immersed in the test solutions for 2-3 seconds and placed on a wire screen to dry. The dried leaves were placed in petri dishes containing a moistened filter paper and infested with five second-instar beet armyworm larvae. The dishes were placed in a high humidity chamber. Mortality of the larvae was recorded five days later. Test concentrations ranged from 0.1% downward. The LC-50 values are expressed below in Table 3 under the heading "BAW" in terms of percent of the test compound in solution.

[2] = system: Tobacco Budworm [Heliothis virescens (Fabricius)] eggs; assay: Tobacco budworm egg test (TBW-E); details: percent in solution
[3] = system: Aster Leafhopper [Macrosteles fascifrens (Stal)]; assay: Aster leafhopper test (LH); details: adults/nymphs, 48 hours, percent in solution
[4] = system: Maize weevil [Sitophilus Zeamais (Motschulsky)]; assay: Maize weevil test (MW); details: adult weevils, treated corn seeds, 48 hours, percent in solution
Method in brief: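 Adult weevils (10) were placed with four corn seeds that had been dipped 2-3 s in compound dissolved in 50:50 acetone:water, then dried, and held at about 25° C. Mortality was scored at 48 h. LC50 was taken from dosage-mortality curves and expressed as percent compound in solution, from a 0.01% top concentration.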

[5] = system: Tobacco Budworm [Heliothis virescens (Fabricius)]; assay: Tobacco budworm contact test (TBW-C); details: second-instar larvae, 5 days, percent in solution
Procedure: as §1
Tobacco Budworm [Heliothis virescens (Fabricius)]
(a) Contact: Test compounds were diluted in a 50-50 acetonewater solution. Cotton (Gossypium sp.) cotyledons were immersed in the test solutions for 2-3 seconds and placed on a wire screen to dry. The dried leaves were placed in petri dishes containing a moistened piece of filter paper and infested with 5 second-instar tobacco budworm larvae. The dishes were placed in a high humidity chamber for 5 days, and percent mortality of the larvae recorded. Test concentrations ranged from 0.1% downward. The LC-50 values are expressed below in Table 3 under the heading "TBW-C" in terms of percent of the test compound in the solution.

[6] = system: Cabbage Looper [Trichoplusia ni (Hubner)]; assay: Cabbage looper test (CL); details: second-instar larvae, 3-5 days, percent in solution
[7] = system: Housefly [Musca domestica]; assay: Housefly insecticidal test (HF); details: per 25 female houseflies, 48 hours
[8] = second-instar larvae, five days, percent in solution

SMILES	LC50 BAW [1, 8] [%]	LC50 TBW E [2] [%]	LC50 LH [3] [%]	LC50 MW [4] [%]	LC50 TBW C [5] [%]	LC50 CL [6] [%]	LC50 HF [7] [µg]	LC50 BAW ([1]; 120 h) [%]
Clc1cccc(N=C(OCc2cccc(Oc3ccccc3)c2)C(Cl)Cl)c1 [Compound 1]	0.009	0.05	> 0.05	> 0.01	0.06	0.005	4.8	
CC(C)C(=Nc1ccc(Cl)cc1)OCc1cccc(Oc2ccccc2)c1 [Compound 2]	0.01	0.04	0.0003		0.0009	0.006	4.5	
CC(Cl)(Cl)C(=Nc1ccc(Cl)cc1)OCc1cccc(Oc2ccccc2)c1 [Compound 3]	0.015	> 0.1	> 0.05	> 0.01	0.009	0.012	50	
Clc1ccc(N=C(OCc2cccc(Oc3ccccc3)c2)C(Cl)Cl)c(Cl)c1 [Compound 4]	0.04	> 0.1	> 0.05		0.05	0.007	100	
CC1(C(=Nc2ccc(Cl)cc2)OCc2cccc(Oc3ccccc3)c2)CC1 [Compound 5]	0.025	0.05	> 0.05	> 0.01	0.008	0.005	21	
CC(C)C(=Nc1ccc(Cl)c(Cl)c1)OCc1cccc(Oc2ccccc2)c1 [Compound 9]	0.0005	0.02	0.0003	> 0.01	0.0008	0.001	14	
Clc1ccc(N=C(OCc2cccc(Oc3ccccc3)c2)C(Cl)Cl)cc1 [Compound 29]	0.003	0.01	0.003	> 0.01	0.001	0.002	5	
ClCC(=Nc1ccc(Cl)cc1)OCc1cccc(Oc2ccccc2)c1 [Compound 31]	0.08	> 0.1	> 0.05	> 0.01	0.01	0.05	> 100	
Clc1ccc(N=C(OCc2cccc(Oc3ccccc3)c2)C2CC2)cc1 [Compound 32]		0.1	> 0.05	> 0.01	0.006	0.003	37	0.03
CC(Cl)C(=Nc1ccc(Cl)cc1)OCc1cccc(Oc2ccccc2)c1 (stereo not drawn) [Compound 33]	0.02	> 0.1	> 0.05	> 0.01	0.0025	0.01	17	
CC(=Nc1ccccc1)OCc1cccc(Oc2ccccc2)c1 [Compound 42]	> 0.1	> 0.1	> 0.05	> 0.01	> 0.1	> 0.1	45	
Fc1ccc(N=C(OCc2cccc(Oc3ccccc3)c2)C2CC2)cc1 [Compound 45]		0.08	> 0.05		0.01	0.03	30	0.1
CC(C)C(=Nc1cccc(F)c1)OCc1cccc(Oc2ccccc2)c1 [Compound 47]	0.002	0.06	0.0003		0.002	0.002	10	
CC(C)C(=Nc1ccc(F)cc1F)OCc1cccc(Oc2ccccc2)c1 [Compound 52]	0.01	> 0.05	0.001		0.004	0.0025	8	
CC(C)C(=Nc1ccc(F)c(F)c1)OCc1cccc(Oc2ccccc2)c1 [Compound 54]	0.004	0.017	0.00015		0.001	0.0003	3.5	
FC(F)(F)c1ccc(N=C(OCc2cccc(Oc3ccccc3)c2)C2CC2)c(Cl)c1 [Compound 65]		> 0.1	> 0.05		0.1	< 0.01	> 100	> 0.1
CC(C)C(=Nc1ccc(Cl)c(C(F)(F)F)c1)OCc1cccc(Oc2ccccc2)c1 [Compound 71]	0.0004	0.065	0.002		0.0008	0.0006	50	
CC(C)C(=Nc1cccc(C(F)(F)F)c1)OCc1ccc(F)c(Oc2ccccc2)c1 [Compound 80]	0.0018	0.005	0.0001		0.00075	0.0003	4.5	
CC(C)C(=Nc1ccc2c(c1)OC(C)(C)O2)OCc1ccc(F)c(Oc2ccc(F)cc2)c1 [Compound 283]	0.0013	0.016		> 0.01	0.0009	0.00009	23	
CC(C)C(=Nc1ccc2c(c1)OC(F)(F)O2)OCc1ccc(F)c(Oc2ccc(F)cc2)c1 [Compound 284]	0.0025		0.0003	0.0075	0.0002	0.00005	39	
CC(C)C(=Nc1ccc(Br)cc1)OCc1ccc(F)c(Oc2ccc(F)cc2)c1 [Compound 333]	> 0.1	0.025		> 0.01	0.00075	0.00024	15	
CC(C)C(=Nc1ccc(I)cc1)OCc1ccc(F)c(Oc2ccc(F)cc2)c1 [Compound 335]	> 0.1	0.05		> 0.01	0.00025	0.00027	34	
CC(C)C(=Nc1ccc(F)c(Cl)c1)OCc1cc(Oc2ccc(F)cc2)c(F)cc1F [Compound 343]	> 0.1	> 0.1		> 0.01	0.00025	0.00027	40	
CC(C)C(=Nc1ccc(F)c(Cl)c1)OCc1ccc(F)c(Oc2ccc(F)c(F)c2)c1 [Compound 346]	> 0.1	> 0.1	0.05		0.0002	> 0.1	7.2	
CC(C)C(=Nc1ccc2c(c1)OC(F)(F)O2)OCc1cccc(Oc2ccc(Cl)cc2)c1 [Compound 450]	0.005	0.015		0.01	0.0001	0.00016	72	
